The text below walks through data of ChEMBL document CHEMBL1127111, “Synthesis of non reducible inhibitors for trypanothione reductase from Trypanosoma cruzi” (Bioorg Med Chem Lett, 1993).

Broadly, the Ki is a measure of affinity in units of concentration, obtained from inhibition or displacement.

Calls of active or inactive are those of the source. No cut-off for these calls is given here.

One assay has as its target Trypanothione reductase (Trypanosoma cruzi, UniProt P28593). The assay is described as follows: Compound was tested for inhibitory activity against recombinant Trypanothione reductase from Trypanosoma cruzi.
Assay [1] has as its system Glutathione reductase (Bos taurus). The assay is described as follows: Compound was tested for inhibitory activity against glutathione reductase from bovine intestinal mucosa; NI means no inhibition.

Chain of Trypanothione reductase (P28593 whole entry): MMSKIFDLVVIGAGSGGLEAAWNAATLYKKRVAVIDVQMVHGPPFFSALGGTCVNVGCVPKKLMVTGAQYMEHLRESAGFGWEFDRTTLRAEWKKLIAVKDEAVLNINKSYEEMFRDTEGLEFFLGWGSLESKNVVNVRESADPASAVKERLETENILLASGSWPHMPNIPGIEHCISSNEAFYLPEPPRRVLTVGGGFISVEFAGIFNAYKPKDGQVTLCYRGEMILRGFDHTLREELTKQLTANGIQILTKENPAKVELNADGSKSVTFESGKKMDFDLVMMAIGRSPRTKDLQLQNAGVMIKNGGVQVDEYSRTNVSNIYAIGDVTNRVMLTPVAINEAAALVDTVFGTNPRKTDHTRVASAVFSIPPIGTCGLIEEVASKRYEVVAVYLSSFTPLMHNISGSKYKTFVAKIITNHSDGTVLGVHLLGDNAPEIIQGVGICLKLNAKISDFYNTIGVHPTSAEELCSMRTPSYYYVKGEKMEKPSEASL

Turning to `CN(C)CCCNC(=O)CNC(=O)C(CCSCC(NC(=O)OCc1ccccc1)C(=O)NCC(=O)NCCCN(C)C)NC(=O)OCc1ccccc1` (stereo unspecified), the Ki on Trypanothione reductase worked out at 43 µM. The result in assay [1] was inactive.

Turning to `CN(C)CCCNC(=O)CNC(=O)C(CSCC(NC(=O)OCc1ccccc1)C(=O)NCC(=O)NCCCN(C)C)NC(=O)OCc1ccccc1` (stereo unspecified), at Trypanothione reductase, the Ki came out at 92 µM. In addition, in assay [1], the result was inactive.

As to `CN(C)CCCNC(=O)CNC(=O)C(CSCSCC(NC(=O)OCc1ccccc1)C(=O)NCC(=O)NCCCN(C)C)NC(=O)OCc1ccccc1` (stereo unspecified), the Ki at Trypanothione reductase came to 31 µM. The result in assay [1] was inactive.
